A word on the pIC50: it is −log10 of the IC50, conventionally taken in molar units. Higher therefore signals a small IC50.

pIC50: −log10 of the molar value.

This assay is described as follows: Displacement of thioflavin-T from amyloid beta (1 to 40) aggregates by thioflavin-T fluorescent dye assay.
`CN(C)c1ccc(/N=N/c2sc3ccccc3[n+]2C)cc1`: the negative logarithm of the IC50 (pIC50) was 5.89.
For `CN(C)c1ccc(/C=C/c2sc3ccccc3[n+]2C)cc1` the value was 6.00.
Under `CCCCCCC[n+]1c(/C=C/c2ccc(N(CC)CC)cc2)sc2ccccc21` stands 6.85; under `CCCCCCC[n+]1c(/C=C/c2ccc(-n3cccc3)cc2)sc2ccccc21`, 6.80.
The compound `CN(C)c1ccc(/C=C/c2nc3ccccc3s2)cc1` showed a pIC50 of less than 4.00.
For `CN(C)c1ccc(/C=C/c2nc3ccc(N(C)C)cc3s2)cc1` the value was less than 4.00; for `CN(C)c1ccc(/C=C/c2sc3ccccc3[n+]2CCCCCc2ccccc2)cc1`, 6.77.
For `CN(C)c1ccc(/C=C/c2sc3ccccc3[n+]2CCCCOc2ccccc2)cc1` the value was 6.77; for `CN(C)c1ccc(/C=C/c2sc3ccccc3[n+]2CCCC(c2ccccc2)c2ccccc2)cc1`, 6.34; for `CN(C)c1ccc(/C=C/c2sc3ccc(F)cc3[n+]2C)cc1`, 6.00.
For `CN(C)c1ccc(/C=C/c2nc3cc(Cl)ccc3s2)cc1` the value was less than 4.00; for `Nc1ccc(/N=N/c2nc3ccccc3s2)c2ccccc12`, 6.92; for `CN(C)c1ccc(/C=C/c2sc3ccc(F)cc3[n+]2Cc2ccccc2)cc1`, 6.77.
As for `CN(C)c1ccc(/C=C/c2sc3ccccc3[n+]2Cc2ccc(F)cc2)cc1`, the negative logarithm of the IC50 (pIC50) was 6.92.
For `CN(C)c1ccc(/C=C/c2sc3ccc(Cl)cc3[n+]2C)cc1` the value was 6.37.
Under `CCCCCCC[n+]1c(/C=C/c2ccc(N(C)C)c3ccccc23)sc2ccccc21` stands 6.80; under `CN(C)c1ccc(/C=C/c2sc3ccccc3[n+]2CCCC2CCCCC2)cc1`, 6.92; under `CCCC[n+]1c(/C=C/c2ccc(N(C)C)cc2)sc2ccccc21`, 6.80.
In the case of `CN(C)c1ccc(/C=C/c2sc3ccccc3[n+]2Cc2cccc(OC(=O)c3ccccc3)c2)cc1`, the negative-log IC50 (pIC50) is 6.64.
Under `CCCCCCC[n+]1c(/C=C/c2ccc(N(CCCC)CCCC)cc2)sc2ccccc21` stands 6.22.
Under `Cc1ccc2c(c1)sc(/C=C/c1ccc(N(C)C)cc1)[n+]2Cc1ccccc1` stands 6.89; under `CN(C)c1ccc(/C=C/c2sc3c(Cc4ccccc4)c(Cc4ccccc4)ccc3[n+]2C)cc1`, 6.68; under `CN(C)c1ccc(/C=C/c2sc3ccccc3[n+]2Cc2ccccc2-c2ccccc2)cc1`, 7.00.
Under `CN(C)c1ccc(/C=C/c2sc3ccccc3[n+]2Cc2ccc3ccccc3c2)cc1` stands 6.92; under `CN(C)c1ccc(/C=C/c2sc3ccccc3[n+]2CCCCCOc2ccccc2)cc1`, 6.77; under `COc1ccc2nc(/N=N/c3ccc(N(C)C)c4ccccc34)sc2c1`, 5.60.
Compound `CN(C)c1ccc(/N=N/c2nc3ccccc3s2)cc1` gave a negative logarithm of the IC50 (pIC50) of 4.66.
On to `CN(C)c1ccc(/C=C/c2sc3cc(Cc4ccccc4)c(Cc4ccccc4)cc3[n+]2C)cc1`, for which the pIC50 is 6.92.
Compound `COc1ccc2c(c1)sc(/N=N/c1ccc(N(C)C)cc1)[n+]2C` showed a pIC50 of 6.39. This pIC50 is 0.53 log units lower than that of the compound before.
Regarding `COc1ccc2c(c1)sc(/C=C/c1ccc(N(C)C)cc1)[n+]2C`, the pIC50 was 6.52.
Under `CN(C)c1ccc(/C=C/c2sc3ccc(Cc4ccccc4)c(Cc4ccccc4)c3[n+]2C)cc1` stands 6.68; under `CN(C)c1ccc(/C=C/c2sc3ccccc3[n+]2Cc2ccc(-c3ccccc3)cc2)cc1`, 6.62.
Compound `COc1ccc2c(c1)sc(/C=C/c1ccc(N(C)C)c3ccccc13)[n+]2C` showed a negative-log IC50 (pIC50) of 6.37.
`COc1ccc2nc(/N=N/c3ccc(N(C)C)cc3)sc2c1` showed a pIC50 of 5.49.
Under `CN(C)c1ccc(/C=C/c2sc3ccccc3[n+]2CCCOCc2ccccc2)cc1` stands 6.85.
For `CN(C)c1ccc(/C=C/c2sc3ccccc3[n+]2Cc2cccc(Oc3ccccc3)c2)cc1` the value was 6.92; for `CN(C)c1ccc(/C=C/c2sc3cc([N+](=O)[O-])ccc3[n+]2C)cc1`, 6.00.
Take `CCCCCCC[n+]1c(/C=C/c2ccc(N(C)C)cc2)sc2cc(OC)ccc21`: the pIC50 was 6.85. This pIC50 is 0.85 log units higher than that of the compound before.
For `CN(C)c1ccc(/C=C/c2sc3ccccc3[n+]2C/C=C/c2ccccc2)cc1` the value was 7.00.
Compound `Cc1ccc2sc(/C=C/c3ccc(N(C)C)cc3)[n+](C)c2c1` showed a pIC50 of 6.40.
`CN(C)c1ccc(/C=C/c2sc3ccccc3[n+]2Cc2ccccc2)cc1` had a negative logarithm of the IC50 (pIC50) of 6.96.
Turning to `CN(C)c1ccc(/C=C/c2sc3ccccc3[n+]2CCCc2ccccc2)cc1`, the pIC50 is 6.70.
On to `CCCCCCC[n+]1c(/C=C/c2ccc(N(C)C)cc2)sc2ccccc21`, for which the negative logarithm of the IC50 (pIC50) was 7.03.
For `CC[n+]1c(/C=C/c2ccc(N(C)C)cc2)sc2ccccc21` the value was 6.40; for `Cc1ccc2c(c1)sc(/C=C/c1ccc(N(C)C)cc1)[n+]2C`, 6.74.

Source of the values: ChEMBL document CHEMBL1944619, “QSAR studies for prediction of cross-β sheet aggregate binding affinity and selectivity” (Bioorg Med Chem, 2012).
